Converted amounts (≈) assume the structure as drawn.
Assays:
mouse Leukemia P388 = assay: Inhibition of proliferation of mouse leukemia P388 cells; format: cell-based; conditions: 48 h; mouse leukemia P388, 37° C, 2 days
Protocol: (§1) A cell suspension containing cells of mouse Leukemia L1210, mouse Leukemia P388, mouse Leukemia EL4, mouse IMC carcinoma or human lung cancer LX-1 cells in a culture medium containing 10% calf serum at a cell density of 1 x 10^5 cells/ml was prepared, and 200 μl-portion of the cell suspension so prepared was placed in a microplate and then added with a solution of MI43-37F11 substance at varying concentrations (dissolved in a mixture of water and dimethylsulfoxide (95:5)). The cell suspension containing the test compound added was subsequently incubated at 37° C for 2 days (but 5 days for the LX-1 cells).
(§2) After the incubation, the number of the cells of the L1210 cells, P388 cells, the EL4 cells and the IMC carcinoma cells in the treated groups was counted by means of Coulter-counter. The control group (untreated) of the cell suspension to which the test compound was not added was incubated in the same way as above and then the number of the cells was similarly counted.
(§3) Rate (%) of inhibition of the cell proliferation of the treated group against that of the control group (untreated) was evaluated. […]

mouse IMC carcinoma = assay: Inhibition of proliferation of mouse IMC carcinoma cells; format: cell-based; conditions: 48 h, 37° C, 2 days
Protocol: as §1, §2, §3

Ehrlich carcinoma [1] = assay: Therapeutic treatment of Ehrlich carcinoma-bearing mice by intraperitoneal injection; format: in vivo, ICR mice
Protocol: (a) Experiments for therapeutic treatment of Ehrlich carcinoma-bearing mice were conducted by intraperitoneal injection of the antibiotic MI43-37F11 substance. Thus, a cell suspension of Ehrlich ascites carcinoma cells was subcutaneously inoculated at the abdominal region of ICR mice (female, 6-week old, 4 mice in each treated group) so that the number of the carcinoma cells as subcutaneously transplanted was 2×10^6 cells per mouse. After the transplantation of the carcinoma cells, the antibiotic MI43-37F11 substance was administered by intraperitoneal injection to the mice having the transplanted and firmly grown carcinoma cells, according to the following schedule of administration. Namely, MI43-37F11 substance was administered at a dosage of 10 mg/kg or 2.5 mg/kg or 0.625 mg/kg only once on the 7th day after the transplantation of the cells, or alternatively MI43-37F11 substance was administered at a dosage of 2.5 mg/kg or 1.25 mg/kg or 0.625 mg/kg, totally five times but every other day from the 7th day to the 14th day after the transplantation of the carcinoma cells. The administration of MI43-37F11 substance was not made but intraperitoneal injection of physiological saline was made in the mice of the control group (untreated) (8 mice in each control group).
(§4) On the 15th day after the transplantation of the carcinoma cells, the mass of the tumor (carcinoma) was surgically removed out of each mouse and weighed. The rate of the reduction in the weight of the tumor (carcinoma) obtained from the group of mice treated with MI43-37F11 substance was evaluated in term of the rate (%) of inhibition, with such an assumption that the weight of the tumor obtained from the control group of mice was amounting to 100. In other words, the rate (%) of inhibition to the growth of Ehrlich carcinoma was calculated according to the following equation [formula] where C means the weight of the tumor in the control group of mice (untreated) and T means the weight of the tumor of the treated group of mice.

Ehrlich carcinoma [2] = assay: Therapeutic treatment of Ehrlich carcinoma-bearing mice by oral administration; format: in vivo, ICR mice; conditions: days 1-9, 14th day; for Weight of tumor (mg ± S.D.): control 1,084 ± 256
Protocol: as §4
(b) Another experiments for therapeutic treatment of Ehrlich carcinoma-bearing mice were conducted by oral administration of MI43-37F11 substance. Thus, the cell suspension of Ehrlich ascites carcinoma cells was subcutaneously inoculated at the abdominal region of ICR mice (female, 6-week old, 5 mice in each treated group) so that the number of the carcinoma cells as subcutaneously implanted was 2×10^6 cells per mouse. The MI43-37F11 substance was orally administered to the mice of the treated group at a dosage of 6.3 mg/kg, 12.5 mg/kg, 25 mg/kg, […] or 100 mg/kg once a day during the consecutive 9 days from the 1st day to the 9th day after the implantation of the carcinoma cells. On the 14th day after the implantation of the carcinoma cells, the mass of the tumor (carcinoma) was surgically removed out of each mouse and weighed. The weight of the tumor obtained from the treated group of mice was compared with the weight of the tumor obtained from the control group of mice (untreated), by calculating the rate (%) of inhibition according to the same equation as above.

peritoneal macrophages = assay: Activation of peritoneal macrophages (production of O2-); format: in vivo, CDF1 mice; conditions: for Rate (%) of increase in production of O2^-: one day before harvest, control 100
Protocol: (3) Experiments for estimation of the activity of MI43-37F11 substance to activate peritoneal macrophages were conducted by the following procedure. Thus, one day before the harvest of the peritoneal macrophages, the antibiotic MI43-37F11 substance was intraperitoneally administered to CDF1 mice (8-week old, female, 3 mice in each group) at a dosage of 50 mg/kg, 12.5 mg/kg or 3.125 mg/kg. One day after the administration, the macrophages were harvested from the peritoneal cavity of the treated mice and placed into a culture medium present in a plastic dish (Falcone, No. 3002, […], a product of Decton Dikinson & Company) at the cell concentration of 1×10^6 cells/m(, followed by incubation of the macrophages. The incubated medium containing the macrophages was then added with 100 ng/ml of phorbol myristate acetate to elicite the macrophages for their production of O2 -. The amount of O2 - was determined by reductive reaction with cytochrome C. The control group of mice (untreated) received only intraperitoneal injection of physiological saline in place of the administration of MI43-37F11 substance before the harvest of the peritoneal macrophages was done. Assumed that the amount of O2 - as produced and liberated by the peritoneal macrophages which were harvested from the mice of the control group was amounting to 100, the rate of increase in the amount of O2 - as produced by the peritoneal macrophages of the mice of the treated group was evaluated. In other words, the rate (%) of increase in the production of O2 - by the peritoneal macrophages of the mice of the treated group was calculated according to the following equation; [formula] where T means the amount of O2^- produced by the peritoneal macrophages of the mice of the treated group and C means the amount of O2^- produced by the peritoneal macrophages of the control group (untreated).

COc1cc(O)c2c(=O)oc(CO)cc2c1 [MI43-37F11 substance]
IC50 (mouse Leukemia P388): 50 µg/mL (≈ 225 µM) | IC50 (mouse IMC carcinoma): 72 µg/mL (≈ 324 µM) | Rate (%) of Inhibition (Ehrlich carcinoma [1]; 0.625 mg/kg i.p., 7th day (only once), tumor weight on 15th day): 12% | Rate (%) of Inhibition (Ehrlich carcinoma [1]; 0.625 mg/kg/day i.p., 7th day to 14th day, every second day, totally 5 times): 30% | Rate (%) of Inhibition (Ehrlich carcinoma [1]; 1.25 mg/kg/day i.p., 7th day to 14th day, every second day, totally 5 times): 67% | Rate (%) of Inhibition (Ehrlich carcinoma [1]; 2.5 mg/kg i.p., 7th day (only once), tumor weight on 15th day): 51% | Rate (%) of Inhibition (Ehrlich carcinoma [1]; 2.5 mg/kg/day i.p., 7th day to 14th day, every second day, totally 5 times): 60% | Rate (%) of Inhibition (Ehrlich carcinoma [1]; 10 mg/kg i.p., 7th day (only once), tumor weight on 15th day): 59% | Rate (%) of Inhibition (Ehrlich carcinoma [2]; 6.3 mg/kg/day oral): 45% | Weight of tumor (mg ± S.D.) (Ehrlich carcinoma [2]; 6.3 mg/kg/day oral, *P < 0.05): 586 ± 282 mg | Rate (%) of Inhibition (Ehrlich carcinoma [2]; 12.5 mg/kg/day oral): 63% | Weight of tumor (mg ± S.D.) (Ehrlich carcinoma [2]; 12.5 mg/kg/day oral, **P < 0.01): 391 ± 266 mg | Rate (%) of Inhibition (Ehrlich carcinoma [2]; 25.0 mg/kg/day oral): 74% | Weight of tumor (mg ± S.D.) (Ehrlich carcinoma [2]; 25.0 mg/kg/day oral, ***P < 0.001): 280 ± 152 mg | Rate (%) of Inhibition (Ehrlich carcinoma [2]; 50.0 mg/kg/day oral): 55% | Weight of tumor (mg ± S.D.) (Ehrlich carcinoma [2]; 50.0 mg/kg/day oral, **P < 0.01): 485 ± 123 mg | Rate (%) of Inhibition (Ehrlich carcinoma [2]; 100.0 mg/kg/day oral): 47% | Weight of tumor (mg ± S.D.) (Ehrlich carcinoma [2]; 100.0 mg/kg/day oral, **P < 0.01): 566 ± 421 mg | Rate (%) of increase in production of O2^- (peritoneal macrophages; 3.125 mg/kg i.p.): 105% | Rate (%) of increase in production of O2^- (peritoneal macrophages; 12.5 mg/kg i.p.): 127% | Rate (%) of increase in production of O2^- (peritoneal macrophages; 50 mg/kg i.p.): 255% | increased production of O2- by peritoneal macrophages (peritoneal macrophages; summary in words): effective

From patent US5096924A, “Anticancer antibiotic MI43-37F11 substance” (501 Azidan Hojin Biseibutsu Kagaku Kenkyu Kai, priority 1989, dated 1992)
